Measured values as given in patent publication US5672710A, “Sulfides, sulfoxides and sulfones disubstituted with a tetrahydronaphthalenyl, chromanyl, thiochromanyl or tetrahydroquinolinyl and substituted phenyl or heteroaryl group, having retinoid-like biological activity” (priority 1995, dated 1997).

Legend:
RXRα [1] = molecular target: T1, RXRα (Homo sapiens, UniProt P19793); assay: Holoreceptor transactivation assay, RXRα; assay type: cell-based; details: CV1 cells; for Emax: CV-1, relative to all trans retinoic acid, read-out: Transactivation Assay Efficacy (% of RA activity), RXRα; for EC50: 36 hours
T1 construct: expressed in transfected cells; host or cells: CV1
T1 sequence (P19793 1-462): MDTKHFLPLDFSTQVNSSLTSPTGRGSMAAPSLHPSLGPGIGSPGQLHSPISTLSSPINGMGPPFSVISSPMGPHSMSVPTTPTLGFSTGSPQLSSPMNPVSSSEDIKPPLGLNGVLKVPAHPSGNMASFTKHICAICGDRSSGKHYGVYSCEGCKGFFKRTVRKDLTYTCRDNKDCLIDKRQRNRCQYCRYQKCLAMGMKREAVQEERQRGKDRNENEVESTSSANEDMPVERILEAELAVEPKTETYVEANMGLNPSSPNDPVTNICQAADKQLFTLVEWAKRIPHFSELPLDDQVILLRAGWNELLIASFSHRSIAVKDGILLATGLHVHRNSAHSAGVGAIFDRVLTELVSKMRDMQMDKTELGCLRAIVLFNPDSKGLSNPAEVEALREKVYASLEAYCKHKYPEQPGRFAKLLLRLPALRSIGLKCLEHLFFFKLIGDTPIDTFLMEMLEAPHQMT
Description: (§1) A holoreceptor transactivation assay and a ligand binding assay which measure the ability of the compounds of the invention to bind to the several retinoid receptor subtypes, respectively, are described in published PCT Application No. WO W093/11755 (particularly on pages 30-33 and 37-41) published on Jun. 24, 1993, the specification of which is also incorporated herein by reference. A description of the holoreceptor transactivation assay is also provided below.
(§2) CV1 cells (5,000 cells/well) were transfected with an RAR reporter plasmid MTV-TREp-LUC (50 ng) along with one of the […] expression vectors (10 ng) in an automated 96-well format by the calcium phosphate procedure of Heyman et al. Cell 68, 397-406. (8). For RXRα and RXR.GAMMA. transactivation assays, an RXR-responsive reporter plasmid CRBPII-tk-LUC (50 ng) along with the appropriate RXRexpression vectors (10 ng) was used substantially as described by Heyman et al. above, and Allegretto et al. J. Biol. Chem. 268, 26625-26633. For RXRβ transactivation assays, an RXR-responsive reporter plasmid CPRE-tk-LUC ([…]) along with RXRβ expression vector ([…]) was used as described in above. These reporters contain DRI elements from human CRBPII and certain DRI elements from promoter, respectively. (see Mangelsdorf et al. The Retinoids: Biology, Chemistry and Medicine, pp 319-349, Raven Press Ltd., New York and Heyman et al., cited above) (1, 8). A β-galactosidase (50 ng) expression vector was used as an internal control in the transfections to normalize for variations in transfection efficiency. The cells were transfected in triplicate for 6 hours, followed by incubation with retinoids for 36 hours, and the extracts were assayed for luciferase and β-galactosidase activities. The detailed experimental procedure for holoreceptor transactivations has been described in Heyman et al. above, and Allegretto et al. cited above. The results obtained in this assay in connection with examplary compounds in accordance with the present invention are expressed in EC50 numbers, as they are also in the chimeric receptor transactivation assay. The Heyman et al. Cell 68, 397-406, Allegretto et al. J. Biol. Chem. 268, 26625-26633, and Mangelsdorf et al. The Retinoids: Biology, Chemistry and Medicine, pp 319-349, Raven Press Ltd., New York, are expressly incorporated herein by reference. The results of ligand binding assay are expressed in Kd numbers. (See Cheng et al. Biochemical Pharmacology Vol. 22 pp 3099-3108, expressly incorporated herein by reference.)

RARα [2] = molecular target: T2, RARα (Homo sapiens, UniProt P10276); assay: Ligand binding assay, RARα
T2 construct: expressed in transfected cells; host or cells: CV1
T2 sequence (P10276 1-462): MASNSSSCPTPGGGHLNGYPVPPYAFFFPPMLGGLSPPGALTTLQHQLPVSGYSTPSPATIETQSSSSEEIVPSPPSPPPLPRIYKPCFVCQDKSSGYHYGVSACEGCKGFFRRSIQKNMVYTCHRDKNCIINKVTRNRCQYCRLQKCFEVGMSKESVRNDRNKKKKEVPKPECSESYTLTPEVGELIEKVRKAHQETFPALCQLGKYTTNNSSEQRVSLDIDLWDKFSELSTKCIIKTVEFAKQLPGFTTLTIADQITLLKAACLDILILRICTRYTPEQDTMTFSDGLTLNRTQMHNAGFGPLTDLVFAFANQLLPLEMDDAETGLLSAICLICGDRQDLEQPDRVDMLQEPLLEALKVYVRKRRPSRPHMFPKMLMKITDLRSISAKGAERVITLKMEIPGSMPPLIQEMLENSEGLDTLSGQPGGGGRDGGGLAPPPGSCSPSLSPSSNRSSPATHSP
Description: as §1, §2

RARα [3] = molecular target: T2, RARα; assay: Holoreceptor transactivation assay, RARα; assay type: cell-based; details: CV-1; CV1 cells; relative to all trans retinoic acid; read-out: Transactivation Assay Efficacy (% of RA activity), RARα
Description: as §1, §2

RXRα [4] = molecular target: T1, RXRα; assay: Ligand binding assay, RXRα
Description: as §1, §2

RXRγ [5] = molecular target: T3, RXRγ (Mus musculus, UniProt P28705); assay: Holoreceptor transactivation assay, RXRγ; assay type: cell-based; details: CV1 cells; for EC50: 36 hours; for Emax: CV-1, relative to all trans retinoic acid, read-out: Transactivation Assay Efficacy (% of RA activity), RXRγ
T3 construct: expressed in transfected cells; host or cells: CV1
T3 sequence (P28705 1-463): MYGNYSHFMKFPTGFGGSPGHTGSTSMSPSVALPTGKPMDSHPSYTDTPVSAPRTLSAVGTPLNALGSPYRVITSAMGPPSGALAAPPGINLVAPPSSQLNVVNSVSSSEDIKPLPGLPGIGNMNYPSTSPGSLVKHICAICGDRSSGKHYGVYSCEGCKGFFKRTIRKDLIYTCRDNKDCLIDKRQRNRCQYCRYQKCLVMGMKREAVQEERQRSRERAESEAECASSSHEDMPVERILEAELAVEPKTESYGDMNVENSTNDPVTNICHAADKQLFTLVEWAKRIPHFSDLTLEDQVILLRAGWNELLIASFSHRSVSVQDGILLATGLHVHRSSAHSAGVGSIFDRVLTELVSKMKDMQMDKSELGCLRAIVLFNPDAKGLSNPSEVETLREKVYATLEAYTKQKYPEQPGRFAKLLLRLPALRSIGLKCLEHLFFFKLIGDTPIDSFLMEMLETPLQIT
Description: as §1, §2

RXRγ [6] = molecular target: T3, RXRγ; assay: Ligand binding assay, RXRγ
Description: as §1, §2

Structure (SMILES) | Emax (RXRα [1]) | Kd (RARα [2]) | Emax (RARα [3]) | Kd (RXRα [4]) | EC50 (RXRα [1]) | EC50 (RXRγ [5]) | Emax (RXRγ [5]) | Kd (RXRγ [6])
CC1(C)CCC(C)(C)c2cc(Sc3ccc(C(=O)O)cc3)ccc21 [Compound 2] | 51% | > 1 µM | 3% | > 1 µM | – | – | – | –
CC1(C)CCC(C)(C)c2cc(S(=O)(=O)c3ccc(C(=O)O)cc3)ccc21 [Compound 5, 4-(5,6,7,8-tetrahydro-5,5,8,8-tetramethyl-2-naphthylsulfonyl)benzoic acid] | 32% | > 1 µM | 10% | > 1 µM | 3 µM | 2.6 µM | 26% | > 1 µM
Cc1cc2c(cc1Sc1ccc(C(=O)O)cc1)C(C)(C)CCC2(C)C [Compound 7, 4-(5,6,7,8-tetrahydro-3,5,5,8,8-pentamethyl-2-Daphthylthio)benzoic acid] | 81% | > 1 µM | 3% | 0.296 µM | 0.28 µM | 0.23 µM | 67% | 0.304 µM
Cc1cc2c(cc1[S+]([O-])c1ccc(C(=O)O)cc1)C(C)(C)CCC2(C)C (stereo not shown) [Compound 9, 4-(5,6,7,8-tetrahydro-3,5,5,8,8-pentamethyl-2-naphthylsulfoxy)benzoic acid] | 17% | > 1 µM | 5% | > 1 µM | – | 1.6 µM | 28% | > 1 µM
Cc1cc2c(cc1S(=O)(=O)c1ccc(C(=O)O)cc1)C(C)(C)CCC2(C)C [Compound 11, 4-(5,6,7,8-tetrahydro-3,5,5,8,8-pentamethyl-2-naphthylsulfonyl)benzoic acid] | 55% | > 1 µM | 2% | > 1 µM | 2.8 µM | – | – | > 1 µM

The remaining lines, values ahead:

Emax (RXRα [1]) | Kd (RARα [2]) | Emax (RARα [3]) | Kd (RXRα [4]) | EC50 (RXRα [1]) | EC50 (RXRγ [5]) | Emax (RXRγ [5]) | Kd (RXRγ [6]) | Structure (SMILES)
91% | > 10 µM | 1% | 0.032 µM | 0.054 µM | 0.042 µM | 85% | 0.073 µM | Cc1cc2c(cc1Sc1ccc(C(=O)O)cn1)C(C)(C)CCC2(C)C [Compound 13]
85% | > 1 µM | 1% | > 1 µM | 2.3 µM | 1.9 µM | 70% | > 1 µM | Cc1cc2c(cc1Sc1ncc(C(=O)O)s1)C(C)(C)CCC2(C)C [Compound 15, 2-(5,6,7,8-Tetrahydro-3,5,5,8,8-pentamethyl-2-naphthylthio)-5-thiazolecarboxylic acid]
